Test results: US6737383B1, “Herbicidal oxadiazolidines” (priority 1999, dated 2004)

Legend:
purple nutsedge = assay: Test B pre/postemergence purple nutsedge; format: in vivo, Cyperus rotundus
Summary of the method: (§1)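 Response is a visual 0-to-10 score relative to untreated plants, where 0 means no effect and 10 means complete control, taken twelve to sixteen days after application. Treatments went onto soil at planting and onto foliage of 1- to 4-leaf plants, using a surfactant-containing non-phytotoxic solvent.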

wild oat = assay: Test B pre/postemergence wild oat; format: in vivo, Avena fatua
Summary of the method: as §1

morningglory = assay: Test B pre/postemergence morningglory; format: in vivo, Ipomoea hederacea
Summary of the method: as §1

bedstraw = assay: Test B pre/postemergence bedstraw; format: in vivo, Galium aparine
Summary of the method: as §1

blackgrass = assay: Test B pre/postemergence blackgrass; format: in vivo, Alopecurus myosuroides
Summary of the method: as §1

pigweed = assay: Test B pre/postemergence pigweed; format: in vivo, Amaranthus retroflexus
Summary of the method: as §1

corn = assay: Test B pre/postemergence corn; format: in vivo, Zea mays
Summary of the method: as §1

cocklebur = assay: Test B pre/postemergence cocklebur; format: in vivo, Xanthium strumarium
Summary of the method: as §1

crabgrass = assay: Test B pre/postemergence crabgrass; format: in vivo, Digitaria sanguinalis
Summary of the method: as §1

rape = assay: Test B pre/postemergence rape; format: in vivo, Brassica napus
Summary of the method: as §1

soybean = assay: Test B pre/postemergence soybean; format: in vivo, Glycine max
Summary of the method: as §1

velvetleaf = assay: Test B pre/postemergence velvetleaf; format: in vivo, Abutilon theophrasti
Summary of the method: as §1

surinam grass = assay: Test B pre/postemergence surinam grass; format: in vivo, Brachiaria decumbens
Summary of the method: as §1

wheat = assay: Test B pre/postemergence wheat; format: in vivo, Triticum aestivum
Summary of the method: as §1

giant foxtail = assay: Test B pre/postemergence giant foxtail; format: in vivo, Setaria faberii
Summary of the method: as §1

[1] = Preemergence, Rate 62 g/ha, scale of 0 to 10 where 0 is no effect and 10 is complete control
[2] = Preemergence, Rate 125 g/ha, 0 is no effect, 10 is complete control
[3] = Preemergence, Rate 250 g/ha, scale 0 to 10, 0 is no effect, 10 is complete control
[4] = Preemergence, Rate 500 g/ha, scale 0 to 10 (0 no effect, 10 complete control)
[5] = Rate 62 g/ha, Postemergence, scale of 0 to 10 where 0 is no effect and 10 is complete control
[6] = Rate 125 g/ha, Postemergence, scale 0 to 10
[7] = Rate 500 g/ha, Postemergence, scale 0 to 10

COc1nc(OC)nc(N(C(=O)n2oc(=O)n(-c3ccccc3C)c2=O)C(C)C)n1 [Compound 181]
0: Nutsedge plant response rating (purple nutsedge; [1]) | Nutsedge plant response rating (0 to 10 scale) (purple nutsedge; [2]) | Nutsedge plant response rating (purple nutsedge; [3]) | Nutsedge plant response rating (purple nutsedge; [4]) | Nutsedge plant response rating (purple nutsedge; [5]) | Nutsedge plant response rating (purple nutsedge; [6]) | Plant response rating (0 to 10; 0 is no effect, 10 is complete control), Nutsedge (purple nutsedge; Rate 250 g/ha, Postemergence) | Nutsedge plant response rating (purple nutsedge; [7]) | Wild oats plant response rating (wild oat; [1]) | Wild oats plant response rating (wild oat; [3]) | Wild oats plant response rating (wild oat; [4]) | Wild oats plant response rating (wild oat; [6]) | Plant response rating (0 to 10; 0 is no effect, 10 is complete control), Wild oats (wild oat; Rate 250 g/ha, Postemergence) | Wild oats plant response rating (wild oat; [7]) | Morningglory plant response rating (morningglory; [1]) | Morningglory plant response rating (0 to 10 scale) (morningglory; [2]) | Morningglory plant response rating (morningglory; [3]) | Morningglory plant response rating (morningglory; [4]) | Morningglory plant response rating (morningglory; [5]) | Morningglory plant response rating (morningglory; [6]) | Plant response rating (0 to 10; 0 is no effect, 10 is complete control), Morningglory (morningglory; Rate 250 g/ha, Postemergence) | Morningglory plant response rating (morningglory; [7]) | Bedstraw plant response rating (bedstraw; [1]) | Bedstraw plant response rating (0 to 10 scale) (bedstraw; [2]) | Bedstraw plant response rating (bedstraw; [3]) | Bedstraw plant response rating (bedstraw; [5]) | Bedstraw plant response rating (bedstraw; [6]) | Plant response rating (0 to 10; 0 is no effect, 10 is complete control), Bedstraw (bedstraw; Rate 250 g/ha, Postemergence) | Bedstraw plant response rating (bedstraw; [7]) | Blackgrass plant response rating (blackgrass; [1]) | Blackgrass plant response rating (0 to 10 scale) (blackgrass; [2]) | Blackgrass plant response rating (blackgrass; [3]) | Blackgrass plant response rating (blackgrass; [4]) | Blackgrass plant response rating (blackgrass; [5]) | Blackgrass plant response rating (blackgrass; [6]) | Plant response rating (0 to 10; 0 is no effect, 10 is complete control), Blackgrass (blackgrass; Rate 250 g/ha, Postemergence) | Blackgrass plant response rating (blackgrass; [7]) | Redroot pigweed plant response rating (pigweed; [1]) | Redroot pigweed plant response rating (0 to 10 scale) (pigweed; [2]) | Redroot pigweed plant response rating (pigweed; [3]) | Redroot pigweed plant response rating (pigweed; [4]) | Redroot pigweed plant response rating (pigweed; [5]) | Redroot pigweed plant response rating (pigweed; [6]) | Plant response rating (0 to 10; 0 is no effect, 10 is complete control), Redroot pigweed (pigweed; Rate 250 g/ha, Postemergence) | Redroot pigweed plant response rating (pigweed; [7]) | Corn plant response rating (corn; [1]) | Corn plant response rating (0 to 10 scale) (corn; [2]) | Corn plant response rating (corn; [3]) | Corn plant response rating (corn; [4]) | Corn plant response rating (corn; [5]) | Corn plant response rating (corn; [6]) | Plant response rating (0 to 10; 0 is no effect, 10 is complete control), Corn (corn; Rate 250 g/ha, Postemergence) | Corn plant response rating (corn; [7]) | Cocklebur plant response rating (cocklebur; [1]) | Cocklebur plant response rating (0 to 10 scale) (cocklebur; [2]) | Cocklebur plant response rating (cocklebur; [3]) | Cocklebur plant response rating (cocklebur; [4]) | Cocklebur plant response rating (cocklebur; [5]) | Cocklebur plant response rating (cocklebur; [6]) | Plant response rating (0 to 10; 0 is no effect, 10 is complete control), Cocklebur (cocklebur; Rate 250 g/ha, Postemergence) | Cocklebur plant response rating (cocklebur; [7]) | Crabgrass plant response rating (crabgrass; [1]) | Crabgrass plant response rating (0 to 10 scale) (crabgrass; [2]) | Crabgrass plant response rating (crabgrass; [3]) | Crabgrass plant response rating (crabgrass; [4]) | Crabgrass plant response rating (crabgrass; [5]) | Crabgrass plant response rating (crabgrass; [6]) | Plant response rating (0 to 10; 0 is no effect, 10 is complete control), Crabgrass (crabgrass; Rate 250 g/ha, Postemergence) | Crabgrass plant response rating (crabgrass; [7]) | Rape plant response rating (rape; [1]) | Rape plant response rating (0 to 10 scale) (rape; [2]) | Rape plant response rating (rape; [3]) | Rape plant response rating (rape; [4]) | Rape plant response rating (rape; [5]) | Rape plant response rating (rape; [6]) | Plant response rating (0 to 10; 0 is no effect, 10 is complete control), Rape (rape; Rate 250 g/ha, Postemergence) | Rape plant response rating (rape; [7]) | Soybean plant response rating (soybean; [1]) | Soybean plant response rating (0 to 10 scale) (soybean; [2]) | Soybean plant response rating (soybean; [3]) | Soybean plant response rating (soybean; [4]) | Soybean plant response rating (soybean; [5]) | Soybean plant response rating (soybean; [6]) | Plant response rating (0 to 10; 0 is no effect, 10 is complete control), Soybean (soybean; Rate 250 g/ha, Postemergence) | Soybean plant response rating (soybean; [7]) | Velvetleaf plant response rating (velvetleaf; [1]) | Velvetleaf plant response rating (velvetleaf; [3]) | Velvetleaf plant response rating (velvetleaf; [4]) | Velvetleaf plant response rating (velvetleaf; [6]) | Plant response rating (0 to 10; 0 is no effect, 10 is complete control), Velvetleaf (velvetleaf; Rate 250 g/ha, Postemergence) | Velvetleaf plant response rating (velvetleaf; [7]) | B. signalgrass plant response rating (surinam grass; [1]) | B. signalgrass plant response rating (0 to 10 scale) (surinam grass; [2]) | B. signalgrass plant response rating (surinam grass; [3]) | B. signalgrass plant response rating (surinam grass; [4]) | B. signalgrass plant response rating (surinam grass; [5]) | B. signalgrass plant response rating (surinam grass; Rate 125 g/ha, Postemergence, scale 0 (no effect) to 10 (complete control)) | Plant response rating, B. signalgrass (surinam grass; Rate 250 g/ha, Postemergence, scale 0 to 10, 0 is no effect, 10 is complete control) | B. signalgrass plant response rating (surinam grass; Rate 500 g/ha, Postemergence, scale 0 to 10, 0 no effect, 10 complete control) | Wheat plant response rating (wheat; [1]) | Wheat plant response rating (wheat; [3]) | Wheat plant response rating (wheat; [4]) | Wheat plant response rating (wheat; [6]) | Plant response rating (0 to 10; 0 is no effect, 10 is complete control), Wheat (wheat; Rate 250 g/ha, Postemergence) | Wheat plant response rating (wheat; [7]) | Giant foxtail plant response rating (giant foxtail; [1]) | Giant foxtail plant response rating (0 to 10 scale) (giant foxtail; [2]) | Giant foxtail plant response rating (giant foxtail; [3]) | Giant foxtail plant response rating (giant foxtail; [4]) | Giant foxtail plant response rating (giant foxtail; [5]) | Giant foxtail plant response rating (giant foxtail; [6]) | Plant response rating (0 to 10; 0 is no effect, 10 is complete control), Giant foxtail (giant foxtail; Rate 250 g/ha, Postemergence) | Giant foxtail plant response rating (giant foxtail; [7])
